Reference: EP0343268A1, “Pharmaceutical composition and process for preparing the same” (BIOGAL GYOGYSZERGYAR, priority 1988, dated 1989)

How the values were obtained:
[1] = in the presence of sulfhydryl-containing compounds, particularly acetylcysteine; cited from earlier work
[2] = tested on: chronic mesotympanic otitis; experiment: Single-ingredient treatment of patients with chronic mesotympanic otitis; assay type: in vivo; conditions: 1% solution
Source text: (§1) Several compositions according to the invention were also studied with omitting one active ingredient of the composition in order to support the progressive character of the multi-active-component type composition according to the invention. These experiments led to the following results.

external otitis = experiment: Single-ingredient treatment of patients with external otitis; assay type: in vivo; conditions: 1% solution
Source text: as §1

[3] = Single-ingredient treatment of patients (steroid alone; sulfhydryl compound solution alone); assay type: in vivo; conditions: aqueous solutions (pH 7.0±0.2) of 3 to 19%, preferably 5 to 15%
Source text: as §1
An objective improvement was observed only in those cases involving large eardrum defects, strong hyperaemia and significant mucous membrane hypertrophy of the tympanic cavity as well as in the cases of external eczematous otitis (otitis externa ekzematosa).
The dilution of the discharge was not observed during the use,however, the amount of the discharge was somewhat reduced in spite of the decrease of its viscosity. The discharge, which was coherent and mucous in character, rather took the form of a precipitate under effect of the treatment by an acetylcysteine solution.

[4] = cited from earlier work
[5] = tested on: several gram-positive and gram-negative bacteria such as Pseudomonas aeruginosa; conditions: in vitro conditions; cited from earlier work
[6] = cited from earlier work; remark: listed apart in the source
[7] = cited from earlier work; remark: listed apart in the source
[8] = In vitro mucolytic effect on ear discharges
[9] = tested on: pathogenic microorganisms occurring in the discharges of patients suffering from chronic otitis (otitis media chronica); experiment: Treatment of ear discharges by antibacterial agents (sensitivity of the pathogens); assay type: cell-based
Description: In the Department for Qtorhinolaryngology of the Medical University of Debrecen, adult and child patients were examined to identify the types of pathogenic microorganisms occurring in the discharges of patients suffering from chronic otitis (otitis media chronica); the discharges of 510 patients were analyzed for the bacterial infection.

[10] = number of cases, total number of the examinations 510

## CC[C@H]1OC(=O)[C@H](C)[C@@H](O[C@H]2C[C@@](C)(OC)[C@@H](O)[C@H](C)O2)[C@H](C)[C@@H](O[C@@H]2O[C@H](C)C[C@H](N(C)C)[C@H]2O)[C@](C)(O)C[C@@H](C)C(=O)[C@H](C)[C@@H](O)[C@]1(C)O [Erythromycin]
[1]
  absorption from the stomach: not disadvantageously influenced

## NC[C@H]1O[C@H](O[C@H]2[C@H](O)[C@@H](O[C@H]3O[C@H](CO)[C@@H](O)[C@H](N)[C@H]3O)[C@H](N)C[C@@H]2N)[C@H](N)C[C@@H]1O [Tobramycin]
[2]
  substantial improvement of the pathological processes: about 60 % of patients
[1]
  absorption from the stomach: not disadvantageously influenced
External otitis
  substantial improvement of the pathological processes: ≤ 40%

## CC(=O)N[C@@H](CS)C(=O)O [acetylcysteine, N-acetyl-L-cysteine]
[3]
  inflammatory symptomes: moderated
  viscosity of the discharge: advantageously influenced
[4]
  LD₅₀ in rats: 6000 mg/kg of body-weight
[5]
  effect with several antibiotics: synergistic effect
[6]
  LD₅₀ in mice: 3000 mg/kg of body-weight
[7]
  LD₅₀ in dogs: 1000 mg/kg of body-weight

## CC1(C)S[C@@H]2[C@H](NC(=O)[C@H](N)c3ccc(O)cc3)C(=O)N2[C@H]1C(=O)O [amoxicillin]
[1]
  absorption from the stomach: not disadvantageously influenced

## N[C@@H](CSCC(=O)O)C(=O)O [carbocysteine]
[8]
  mucolytic effect: a mucolytic effect can also be shown

## O=C(O)C(S)C(S)C(=O)O (stereo not shown) [dimercaptosuccinate]
[8]
  mucolytic effect: a mucolytic effect can also be shown

## O[C@H](CS)[C@@H](O)CS [dithioerythritol]
[8]
  mucolytic effect: a mucolytic effect can also be shown

## C[C@H]1c2cccc(O)c2C(O)=C2C(=O)[C@]3(O)C(O)=C(C(N)=O)C(=O)[C@@H](N(C)C)[C@@H]3[C@@H](O)[C@@H]21 [doxycyclin]
[1]
  absorption from the stomach: not disadvantageously influenced

## N[C@@H](CCC(=O)N[C@@H](CS)C(=O)NCC(=O)O)C(=O)O [glutathione]
[8]
  mucolytic effect: a mucolytic effect can also be shown

## CC(C)(CO)[C@@H](O)C(=O)NCCC(=O)NCCS [pantetheine]
[8]
  mucolytic effect: a mucolytic effect can also be shown

## Neomycin
[1]
  absorption from the stomach: not disadvantageously influenced

## Penicillin
[9]; [10]
  A = therapeutically active (sensitive): 67
  M = moderately active: 22
  R = inactive (resistant): 218
[9]; share of examined cases moderately active or active
  Act. = activity %: 29.4%
